Laboratory results: US20240139220A1, “TREATMENT OF HPV INFECTION” (priority 2022, published 2024)

Key:
Type in all cases: physicochemical
[1] = Bulk stability, accelerated storage for one week (HPLC, XRPD)
Protocol: Bulk stability: Accelerated stability experiments were conducted at 25° C./92% RH and 40° C./75% RH in an open container, 60° C. in a tight container for one week.
Samples were characterized by XRPD and HPLC and inspected for color change.
Accelerated stability experiments were conducted at 25° C./92% RH in an open container, at 40° C./75% RH in an open container, and at 60° C. in a tight container for one week.

[2] = Solubility in buffers, water and simulated vaginal fluid at 37° C.
Protocol: About 4 mg of Compound I Pattern 1 was added into 2 mL of buffer solution.
(§1) Solubility was tested in five media, pH 3.0 citrate buffer, pH 4.5 acetate buffer, pH 6.8 phosphate buffer, water, simulated vaginal fluid (pH 4.2) at 37° C. for 0.5 h and 2 h.
The salt amount used is equivalent to 10 mg anhydrous free base. […] The obtained clear solutions were analyzed by pH meter for pH, and solubility was determined by observation.
as §1

[3] = Hygroscicity by Dynamic Vapor Sorption (DVS) at 25° C.; settings: for D. (%) Cycle 1 (Desorption) / D. (%) Cycle 2 (Desorption) / S. (%) Cycle 1 (Sorption) / S. (%) Cycle 2 (Sorption) / XRPD after DVS test: 25° C.; for XRPD after DVS test: cycle 40-0-95-0-40% RH; for Water uptake: DVS 25° C.
Protocol: Hygroscopicity was investigated by DVS at 25° C., using the following method: […]

[4] = 25° C., 84% RH, open container, 2 days
[5] = 25° C., 92% RH, open container, one week
[6] = 40° C., 75% RH, open container, one week
[7] = 60° C., tight container, one week
[8] = Simulated vaginal fluid (pH adjusted with 0.2N NaOH)

Compound: CCOC(=O)C(C)NP(=O)(COCCn1cnc2c(OC)nc(N)nc21)OCc1ccccc1.CCOC(=O)C(C)NP(=O)(COCCn1cnc2c(OC)nc(N)nc21)OCc1ccccc1.O=C(O)C=CC(=O)O (mixture of isomers) [Compound I Hemifumarate Pattern 1]
- XRPD [1, 4]: No change
- HPLC (chemical purity) [1, 5]: 97.0%
- XRPD [1, 5]: No change
- HPLC (chemical purity) [1, 6]: 90.9%
- XRPD [1, 6]: No change
- Degradation compared ([1]; 40° C./75% RH and 60° C. for one week): tends to degrade more than Compound I monofumarate Pattern 1
- HPLC (chemical purity) [1, 7]: 82.3%
- XRPD [1, 7]: No change
- HPLC (chemical purity) ([1]; Initial): 97.8%
- Solubility 0.5 hrs [2, 8]: >2000 µg/mL
- Solubility 2 hrs [2, 8]: >2000 µg/mL
- pH at 2 hrs [2, 8]: (5.30)
- Solubility 0.5 hrs ([2]; Water): >2000 µg/mL
- Solubility 2 hrs ([2]; Water): >2000 µg/mL
- pH at 2 hrs ([2]; Water): (3.38)
- Solubility 0.5 hrs ([2]; pH 3.0 100 mM citrate buffer): >2000 µg/mL
- Solubility 2 hrs ([2]; pH 3.0 100 mM citrate buffer): >2000 µg/mL
- pH at 2 hrs ([2]; pH 3.0 100 mM citrate buffer): (3.07)
- Solubility 0.5 hrs ([2]; pH 4.5 50 mM acetate buffer): >2000 µg/mL
- Solubility 2 hrs ([2]; pH 4.5 50 mM acetate buffer): >2000 µg/mL
- pH at 2 hrs ([2]; pH 4.5 50 mM acetate buffer): (4.45)
- Solubility 0.5 hrs ([2]; pH 6.8 50 mM phosphate buffer): >2000 µg/mL
- Solubility 2 hrs ([2]; pH 6.8 50 mM phosphate buffer): >2000 µg/mL
- pH at 2 hrs ([2]; pH 6.8 50 mM phosphate buffer): (6.68)
- D. (%) Cycle 1 (Desorption) ([3]; 0% RH): 0.13%
- D. (%) Cycle 2 (Desorption) ([3]; 0% RH): 0.00%
- S. (%) Cycle 1 (Sorption) ([3]; 0% RH): 0.13%
- S. (%) Cycle 2 (Sorption) ([3]; 0% RH): 0.00%
- D. (%) Cycle 1 (Desorption) ([3]; 10% RH): 0.36%
- D. (%) Cycle 2 (Desorption) ([3]; 10% RH): 0.23%
- S. (%) Cycle 1 (Sorption) ([3]; 10% RH): 0.34%
- S. (%) Cycle 2 (Sorption) ([3]; 10% RH): 0.20%
- D. (%) Cycle 1 (Desorption) ([3]; 20% RH): 0.56%
- D. (%) Cycle 2 (Desorption) ([3]; 20% RH): 0.44%
- S. (%) Cycle 1 (Sorption) ([3]; 20% RH): 0.53%
- S. (%) Cycle 2 (Sorption) ([3]; 20% RH): 0.40%
- D. (%) Cycle 1 (Desorption) ([3]; 30% RH): 0.79%
- D. (%) Cycle 2 (Desorption) ([3]; 30% RH): 0.68%
- S. (%) Cycle 1 (Sorption) ([3]; 30% RH): 0.73%
- S. (%) Cycle 2 (Sorption) ([3]; 30% RH): 0.61%
- D. (%) Cycle 1 (Desorption) ([3]; 40% RH): 1.04%
- D. (%) Cycle 2 (Desorption) ([3]; 40% RH): 0.94%
- S. (%) Cycle 1 (Sorption) ([3]; 40% RH): 0.96%
- S. (%) Cycle 2 (Sorption) ([3]; 40% RH): 0.87%
- D. (%) Cycle 2 (Desorption) ([3]; 50% RH): 1.26%
- S. (%) Cycle 1 (Sorption) ([3]; 50% RH): 1.22%
- D. (%) Cycle 2 (Desorption) ([3]; 60% RH): 1.68%
- S. (%) Cycle 1 (Sorption) ([3]; 60% RH): 1.57%
- D. (%) Cycle 2 (Desorption) ([3]; 70% RH): 2.25%
- S. (%) Cycle 1 (Sorption) ([3]; 70% RH): 2.04%
- D. (%) Cycle 2 (Desorption) ([3]; 80% RH): 3.14%
- S. (%) Cycle 1 (Sorption) ([3]; 80% RH): 2.80%
- D. (%) Cycle 2 (Desorption) ([3]; 90% RH): 4.84%
- S. (%) Cycle 1 (Sorption) ([3]; 90% RH): 4.54%
- D. (%) Cycle 2 (Desorption) ([3]; 95% RH): 6.87%
- S. (%) Cycle 1 (Sorption) ([3]; 95% RH): 6.87%
- XRPD after DVS test [3]: No form change,
- Water uptake ([3]; up to 95% RH): ~6.9%

Compound: CCOC(=O)C(C)NP(=O)(COCCn1cnc2c(OC)nc(N)nc21)OCc1ccccc1 (mixture of isomers) [Compound I free base Pattern 1]
- XRPD [1, 4]: No change
- HPLC (chemical purity) [1, 5]: 98.5%
- XRPD [1, 5]: No change
- HPLC (chemical purity) [1, 6]: 95.2%
- XRPD [1, 6]: No change
- HPLC (chemical purity) [1, 7]: 98.5%
- XRPD [1, 7]: No change
- HPLC (chemical purity) ([1]; Initial): 98.7%
- Solubility 0.5 hrs [2, 8]: >2000 µg/mL
- Solubility 2 hrs [2, 8]: >2000 µg/mL
- pH at 2 hrs [2, 8]: (5.53)
- Solubility 0.5 hrs ([2]; Water): >2000 µg/mL
- Solubility 2 hrs ([2]; Water): >2000 µg/mL
- pH at 2 hrs ([2]; Water): (7.55)
- Solubility 0.5 hrs ([2]; pH 3.0 100 mM citrate buffer): >2000 µg/mL
- Solubility 2 hrs ([2]; pH 3.0 100 mM citrate buffer): >2000 µg/mL
- pH at 2 hrs ([2]; pH 3.0 100 mM citrate buffer): (2.98)
- Solubility 0.5 hrs ([2]; pH 4.5 50 mM acetate buffer): >2000 µg/mL
- Solubility 2 hrs ([2]; pH 4.5 50 mM acetate buffer): >2000 µg/mL
- pH at 2 hrs ([2]; pH 4.5 50 mM acetate buffer): (4.50)
- Solubility 0.5 hrs ([2]; pH 6.8 50 mM phosphate buffer): >2000 µg/mL
- Solubility 2 hrs ([2]; pH 6.8 50 mM phosphate buffer): >2000 µg/mL
- pH at 2 hrs ([2]; pH 6.8 50 mM phosphate buffer): (6.81)
- D. (%) Cycle 1 (Desorption) ([3]; 0% RH): 0.00%
- D. (%) Cycle 2 (Desorption) ([3]; 0% RH): 0.19%
- S. (%) Cycle 1 (Sorption) ([3]; 0% RH): 0.00%
- S. (%) Cycle 2 (Sorption) ([3]; 0% RH): 0.19%
- D. (%) Cycle 1 (Desorption) ([3]; 10% RH): 0.11%
- D. (%) Cycle 2 (Desorption) ([3]; 10% RH): 0.37%
- S. (%) Cycle 1 (Sorption) ([3]; 10% RH): 0.08%
- S. (%) Cycle 2 (Sorption) ([3]; 10% RH): 0.22%
- D. (%) Cycle 1 (Desorption) ([3]; 20% RH): 0.23%
- D. (%) Cycle 2 (Desorption) ([3]; 20% RH): 0.57%
- S. (%) Cycle 1 (Sorption) ([3]; 20% RH): 0.17%
- S. (%) Cycle 2 (Sorption) ([3]; 20% RH): 0.30%
- D. (%) Cycle 1 (Desorption) ([3]; 30% RH): 0.47%
- D. (%) Cycle 2 (Desorption) ([3]; 30% RH): 0.83%
- S. (%) Cycle 1 (Sorption) ([3]; 30% RH): 0.28%
- S. (%) Cycle 2 (Sorption) ([3]; 30% RH): 0.44%
- D. (%) Cycle 1 (Desorption) ([3]; 40% RH): 0.60%
- D. (%) Cycle 2 (Desorption) ([3]; 40% RH): 1.09%
- S. (%) Cycle 1 (Sorption) ([3]; 40% RH): 0.41%
- S. (%) Cycle 2 (Sorption) ([3]; 40% RH): 0.62%
- D. (%) Cycle 2 (Desorption) ([3]; 50% RH): 1.48%
- S. (%) Cycle 1 (Sorption) ([3]; 50% RH): 0.61%
- D. (%) Cycle 2 (Desorption) ([3]; 60% RH): 1.96%
- S. (%) Cycle 1 (Sorption) ([3]; 60% RH): 0.85%
- D. (%) Cycle 2 (Desorption) ([3]; 70% RH): 2.78%
- S. (%) Cycle 1 (Sorption) ([3]; 70% RH): 1.14%
- D. (%) Cycle 2 (Desorption) ([3]; 80% RH): 4.33%
- S. (%) Cycle 1 (Sorption) ([3]; 80% RH): 1.64%
- D. (%) Cycle 2 (Desorption) ([3]; 90% RH): 9.10%
- S. (%) Cycle 1 (Sorption) ([3]; 90% RH): 4.27%
- D. (%) Cycle 2 (Desorption) ([3]; 95% RH): 14.32%
- S. (%) Cycle 1 (Sorption) ([3]; 95% RH): 14.32%
- XRPD after DVS test [3]: No form change,
- Water uptake ([3]; up to 90% RH): about 4.3%
- Water uptake ([3]; up to 95% RH): about 14.3%
